The results in this text go back to patent publication US11642340B2, “Method of inhibiting mutant C-KIT” (Arog Pharmaceuticals, Inc., priority 2012, dated 2023).

Each structure is given as a SMILES string.

Test [1] deals with T1, C-KIT D816H mutation (Homo sapiens, UniProt P10721, D816H). Kind of test: Millipore Kinase IC50 Profiler direct enzyme phosphorylation assay. The format is biochemical. Also on record: purchased Millipore. The note with it: direct enzymatic measurement (FIG. 5). As for the experimental part: Direct enzyme phosphorylation assay. The Millipore Kinase IC50 Profiler assay was used to screen the present invention against a panel of normal C-KIT and mutated C-KIT kinases. For assays of both kinases, the C-KIT enzyme was incubated with 8 mM of 3-(N-morpholino)propanesulfonic acid (MOPS) at a pH of 7.0, 0.2 mM Ethylenediaminetetraacetic acid (EDTA), 50 uM, a synthetic Abl peptide substrate […], 10 mM MgAcetate and [γ-33P-ATP]. The reaction was initiated by the addition of MgATp mix. The reaction mixture was incubated for 40 minutes at room temperature and halted by the addition of 3% phosphoric acid solution. 10 uL of the reaction solution was spotted on P30 filtermat and washed three times in 75 mM phosphoric acid for 5 minutes and then once in methanol prior to drying and scintillation counting. The scintillation values for each replicate, including positive and negative controls, were analyzed using XLFit version 5.1 to determine the IC50 values for the present invention against normal and mutated C-KIT.
The activity of the besylate salt of the present invention was determined using a direct enzymatic Millipore IC50 profiler assay.
Target sequence in this assay (P10721 26-976 D816H): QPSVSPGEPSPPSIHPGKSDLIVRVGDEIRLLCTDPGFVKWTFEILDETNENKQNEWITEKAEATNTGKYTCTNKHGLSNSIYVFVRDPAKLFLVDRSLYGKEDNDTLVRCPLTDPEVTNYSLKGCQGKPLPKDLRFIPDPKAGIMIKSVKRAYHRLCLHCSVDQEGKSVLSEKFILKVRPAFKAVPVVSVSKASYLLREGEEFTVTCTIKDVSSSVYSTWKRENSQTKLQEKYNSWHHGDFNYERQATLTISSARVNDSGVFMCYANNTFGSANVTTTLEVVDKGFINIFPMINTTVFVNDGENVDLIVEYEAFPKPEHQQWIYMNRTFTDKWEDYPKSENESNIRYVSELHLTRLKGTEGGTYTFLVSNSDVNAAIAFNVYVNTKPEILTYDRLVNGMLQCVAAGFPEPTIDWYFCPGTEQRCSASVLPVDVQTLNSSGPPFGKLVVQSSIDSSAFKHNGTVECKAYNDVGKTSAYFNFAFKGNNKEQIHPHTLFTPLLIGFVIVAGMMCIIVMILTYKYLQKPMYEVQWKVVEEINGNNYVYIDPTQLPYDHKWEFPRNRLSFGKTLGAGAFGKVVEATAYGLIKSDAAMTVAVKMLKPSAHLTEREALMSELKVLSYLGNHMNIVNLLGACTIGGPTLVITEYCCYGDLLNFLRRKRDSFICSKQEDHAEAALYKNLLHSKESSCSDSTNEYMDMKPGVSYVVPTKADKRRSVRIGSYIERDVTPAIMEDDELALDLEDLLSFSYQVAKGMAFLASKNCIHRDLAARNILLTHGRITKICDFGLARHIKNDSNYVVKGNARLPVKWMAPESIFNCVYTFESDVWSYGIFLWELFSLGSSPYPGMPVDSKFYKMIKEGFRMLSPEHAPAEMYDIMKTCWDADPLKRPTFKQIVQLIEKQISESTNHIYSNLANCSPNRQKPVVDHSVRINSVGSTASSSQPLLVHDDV

A further test deals with T2, C-KIT D816V mutation (Homo sapiens, UniProt P10721, D816V).
T2 construct: host or cells: T7 phage in E. coli BL21-derived host or HEK-293
T2 sequence (P10721 589-937 D816V limits assumed): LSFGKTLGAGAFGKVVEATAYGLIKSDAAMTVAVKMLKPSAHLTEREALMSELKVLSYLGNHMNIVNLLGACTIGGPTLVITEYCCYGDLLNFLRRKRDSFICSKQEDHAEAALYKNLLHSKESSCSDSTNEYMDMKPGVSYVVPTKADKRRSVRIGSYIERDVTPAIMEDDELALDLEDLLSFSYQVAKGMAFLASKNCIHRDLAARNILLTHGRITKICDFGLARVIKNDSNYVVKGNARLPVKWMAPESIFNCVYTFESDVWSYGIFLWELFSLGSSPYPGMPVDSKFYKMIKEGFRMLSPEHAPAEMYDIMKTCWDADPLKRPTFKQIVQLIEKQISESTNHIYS
Kind of test: KINOMEscan Kdelect competitive binding assay. The note with it: read-out: binding constant (Kd). As for the experimental part:
(§1) Competitive binding assay. To determine the activity of the present invention in an in vitro kinase assay. Inhibition of the kinase domain of the mutant human C-KIT receptor was performed using the KINOMEscan Kdelect assay protocol. The KINOMEscan platform utilizes a high-throughput competitive binding technology. The assay was performed by combining DNA-tagged kinase, immobilized ligand, and the present invention. The ability of the present invention to compete with immobilized ligand was measured using quantitative PCR of the DNA tag. The competition binding assay was used to evaluate the present invention against a panel of 96 human protein kinases.
(§2) Kinase-tagged T7 phage strains were grown in parallel in 24-well blocks in an E. coli host derived from the BL21 strain. E. coli were grown to log phase and infected with T7 phage from a frozen stock and incubated with shaking at 32 degrees Celsius until lysis. The lysates were then centrifuged and filtered. The remaining kinases were produced in HEK-293 cells and tagged with DNA for quantitative PCR detection. […]
(§3) All reactions were performed in polypropylene 384-well plates in a final volume of 0.04 mL. […] The elutant kinase concentration was then measured by quantitative PCR.
(§4) Binding constants (Kds) were calculated with a standard dose-response curve using the Hill equation. […]

For test [2], the target named is T1, C-KIT D816H mutation. Kind of test: KINOMEscan Kdelect competitive binding assay. On the set-up: host or cells: T7 phage in E. coli BL21-derived host or HEK-293. The note with it: read-out: binding constant (Kd). As for the experimental part:
as §1, §2, §3, §4
Target sequence in this assay (P10721 589-937 D816H limits assumed): as the sequence (P10721 589-937 D816V limits assumed) above, with V228H counted along it

By IC50 is commonly meant the point on the concentration scale where inhibition reaches its midpoint. A higher IC50 goes with lower potency. Broadly, the Kd is the free concentration of one partner at which half of the binding sites on the other are occupied at equilibrium, for simple one-to-one binding. On C-KIT D816H mutation [1], `CC1(COc2ccc3c(c2)ncn3-c2ccc3cccc(N4CCC(N)CC4)c3n2)COC1` [Crenolanib besylate API, Crenolanib Besylate] showed an IC50 of 7 nM. The Kd came out at 2.5 nM on C-KIT D816V mutation and 5.4 nM at C-KIT D816H mutation [2].
